The values that follow come from article PMC6804997 (PLoS ONE, 2019).

pIC50: −log10 of the molar value.

One data set concerns the target HDAC4 (Homo sapiens, UniProt P56524). The data set is described as follows: HDAC enzyme inhibition assay (Ac-peptide-AMC substrate). The data set is classed as biochemical. The method, then:
(§1) HDACs inhibition assay of F7 was performed utilizing 4-amino-7-methylcoumarin (AMC) labeled Ac-peptide (Ac-peptide-AMC) substrates, a service provided by Chempartner Company (Shanghai, China).
(§2) This assay was performed was performed utilizing 4-amino-7-methylcoumarin (AMC) labeled Ac-peptide (Ac-peptide-AMC) substrates, a service provided by Chempartner Company (Shanghai, China).

The target of another data set is HDAC5 (Homo sapiens, UniProt Q9UQL6). The data set is described as above. The data set is classed as biochemical. The method, then:
as §1, §2

For the next data set, the target named is T1, HDAC6 (Homo sapiens, UniProt Q9UBN7).
T1 sequence (Q9UBN7 1-1215): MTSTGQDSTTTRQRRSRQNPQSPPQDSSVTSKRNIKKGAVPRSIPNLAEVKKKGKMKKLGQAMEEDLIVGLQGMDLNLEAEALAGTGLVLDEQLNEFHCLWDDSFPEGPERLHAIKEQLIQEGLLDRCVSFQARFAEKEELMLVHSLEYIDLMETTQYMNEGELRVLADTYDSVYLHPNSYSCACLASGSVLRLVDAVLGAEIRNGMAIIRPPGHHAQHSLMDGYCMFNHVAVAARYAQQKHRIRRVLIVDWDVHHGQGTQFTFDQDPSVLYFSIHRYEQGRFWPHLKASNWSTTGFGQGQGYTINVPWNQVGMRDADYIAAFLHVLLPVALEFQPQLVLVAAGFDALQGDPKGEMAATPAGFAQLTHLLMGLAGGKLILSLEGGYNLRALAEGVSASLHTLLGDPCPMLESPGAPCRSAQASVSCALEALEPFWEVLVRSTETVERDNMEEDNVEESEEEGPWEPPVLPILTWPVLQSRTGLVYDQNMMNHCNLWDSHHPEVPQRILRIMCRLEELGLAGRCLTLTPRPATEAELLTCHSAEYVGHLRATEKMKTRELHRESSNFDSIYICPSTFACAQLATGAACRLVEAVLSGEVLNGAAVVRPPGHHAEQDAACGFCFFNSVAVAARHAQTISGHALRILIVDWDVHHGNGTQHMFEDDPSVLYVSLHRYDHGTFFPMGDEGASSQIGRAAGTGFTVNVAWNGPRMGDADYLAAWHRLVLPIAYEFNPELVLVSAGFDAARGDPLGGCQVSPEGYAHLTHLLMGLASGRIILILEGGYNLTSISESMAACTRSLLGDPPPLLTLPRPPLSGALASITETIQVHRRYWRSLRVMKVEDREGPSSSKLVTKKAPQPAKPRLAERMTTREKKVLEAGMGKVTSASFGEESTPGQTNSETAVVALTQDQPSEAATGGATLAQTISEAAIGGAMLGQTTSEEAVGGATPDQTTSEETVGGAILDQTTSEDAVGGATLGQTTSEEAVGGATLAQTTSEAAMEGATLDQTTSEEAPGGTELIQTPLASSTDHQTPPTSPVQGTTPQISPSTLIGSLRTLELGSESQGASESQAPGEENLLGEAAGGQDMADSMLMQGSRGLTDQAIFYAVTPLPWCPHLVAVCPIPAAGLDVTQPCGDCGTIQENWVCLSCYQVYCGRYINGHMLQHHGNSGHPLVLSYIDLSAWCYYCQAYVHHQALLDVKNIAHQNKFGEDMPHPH
The data set is described as above. In kind it is biochemical. The method, then: as §1, §2

Data set [1] concerns liver, kidney, spleen, heart and lung tissues of mice. The data set is described as follows: Histological examination of organs from normal mice given F7. The data set is classed as in vivo. The following applies: oral F7 40 mg/kg/d for 3 days, without glycerol injection. The method, then: We firstly examined whether the mice model of glycerol-induced AKI was successfully established, and tested the protective effect of F7 at a dose of 40 mg/kg/d for 3 days on renal function and pathological changes. […] We also evaluated the liver, kidney, spleen, heart and lung tissues of mice with oral administration of F7 at the same dose as that in F7+glycerol group for 3 days, but without glycerol injections.
Supplementary file pone.0224158.s002.tif: S2 Fig Histological examinations of different organs from the normal mice administrated with F7. Photomicrographs (×200) illustrated H&E staining of the heart, liver, spleen, lung and kidney tissues from mice with oral administration of F7 at a dose of 40 mg/kg/d for 3 days but without glycerol injection. (TIF) Click here for additional data file.

Another data set relates to HK-2 cells. The experiment in a line: Annexin V/PI flow cytometry of myoglobin-stimulated HK-2 cells. In kind it is cell-based, Human. As to conditions: F7 […], 5 nM and 10 nM; Mb 200 μM, 24 hrs. The method, then:
Human renal proximal tubule cell line (HK-2) cells were purchased from Shanghai Institute of Biochemistry and Cell Biology, Shanghai, China and maintained in DMEM/F12 (Hyclone, Beijing, China) supplemented with 10% fetal bovine serum (FBS, Hyclone, Australia) and 1% penicillin and streptomycin at 37°C under humidified atmosphere of 5% carbon dioxide. Then cells were seeded on six-well plates (Shanghai Sunub Bio-Tech Development Inc., Shanghai, China) at a density of 200,000 cells per well, divided into four groups at exponential phase: the control group (cells incubated with DMEM/F12+10%FBS), the model group (cells incubated with 200 μM ferrous myoglobin (M0630, Sigma-Aldrich, St. […]
Cell apoptosis was evaluated by flow cytometry using an Annexin V-FITC apoptosis analysis kit (AO-2001-02P-H, Tianjin Sungene Biotech Co., Ltd, Tianjin, China). After the four group of cells were cultured under the condition as described above for 24 hours, they were digested by trypsin, collected, and washed three times with PBS diluted 1×binding buffer (1ml per tube). […] After being supplemented to 500 μL using cold PBS followed by gentle vortex, samples were ready to be testes. Apoptosis signals were detected using a CytoFLEX by Beckman & Coulter.
Background: Flow cytometry measures light scatter and fluorescence of single cells or particles in a stream.

HDAC5, sequence (Q9UQL6 whole entry, species assumed): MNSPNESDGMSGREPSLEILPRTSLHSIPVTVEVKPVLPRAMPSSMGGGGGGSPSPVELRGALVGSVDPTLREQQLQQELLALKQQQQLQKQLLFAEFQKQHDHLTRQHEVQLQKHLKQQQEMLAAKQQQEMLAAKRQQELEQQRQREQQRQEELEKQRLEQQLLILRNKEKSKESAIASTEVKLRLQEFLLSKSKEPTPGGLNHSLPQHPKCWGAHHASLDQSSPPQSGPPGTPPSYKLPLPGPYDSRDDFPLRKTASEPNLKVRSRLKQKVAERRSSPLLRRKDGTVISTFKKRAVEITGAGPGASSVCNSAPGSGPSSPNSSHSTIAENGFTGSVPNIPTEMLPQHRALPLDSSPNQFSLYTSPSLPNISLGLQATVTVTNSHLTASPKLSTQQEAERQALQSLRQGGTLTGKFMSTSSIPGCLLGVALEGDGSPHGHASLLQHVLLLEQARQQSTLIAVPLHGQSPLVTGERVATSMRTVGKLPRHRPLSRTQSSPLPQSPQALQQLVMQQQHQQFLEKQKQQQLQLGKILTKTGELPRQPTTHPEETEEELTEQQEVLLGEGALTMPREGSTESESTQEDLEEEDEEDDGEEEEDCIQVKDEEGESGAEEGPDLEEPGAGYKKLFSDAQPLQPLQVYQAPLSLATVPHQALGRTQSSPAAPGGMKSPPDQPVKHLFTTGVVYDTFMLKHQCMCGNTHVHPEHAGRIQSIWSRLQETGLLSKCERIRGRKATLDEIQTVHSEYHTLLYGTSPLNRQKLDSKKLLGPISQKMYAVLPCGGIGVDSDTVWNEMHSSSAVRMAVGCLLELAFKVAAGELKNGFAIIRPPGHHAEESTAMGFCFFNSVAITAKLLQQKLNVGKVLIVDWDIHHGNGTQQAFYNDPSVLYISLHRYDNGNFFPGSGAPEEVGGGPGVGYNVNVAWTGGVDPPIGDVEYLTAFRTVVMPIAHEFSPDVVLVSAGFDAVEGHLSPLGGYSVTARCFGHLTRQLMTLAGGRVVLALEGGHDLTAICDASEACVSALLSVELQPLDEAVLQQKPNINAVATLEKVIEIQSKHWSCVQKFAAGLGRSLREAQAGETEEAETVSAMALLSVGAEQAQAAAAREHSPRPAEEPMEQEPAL
HDAC4, sequence (P56524 whole entry, species assumed): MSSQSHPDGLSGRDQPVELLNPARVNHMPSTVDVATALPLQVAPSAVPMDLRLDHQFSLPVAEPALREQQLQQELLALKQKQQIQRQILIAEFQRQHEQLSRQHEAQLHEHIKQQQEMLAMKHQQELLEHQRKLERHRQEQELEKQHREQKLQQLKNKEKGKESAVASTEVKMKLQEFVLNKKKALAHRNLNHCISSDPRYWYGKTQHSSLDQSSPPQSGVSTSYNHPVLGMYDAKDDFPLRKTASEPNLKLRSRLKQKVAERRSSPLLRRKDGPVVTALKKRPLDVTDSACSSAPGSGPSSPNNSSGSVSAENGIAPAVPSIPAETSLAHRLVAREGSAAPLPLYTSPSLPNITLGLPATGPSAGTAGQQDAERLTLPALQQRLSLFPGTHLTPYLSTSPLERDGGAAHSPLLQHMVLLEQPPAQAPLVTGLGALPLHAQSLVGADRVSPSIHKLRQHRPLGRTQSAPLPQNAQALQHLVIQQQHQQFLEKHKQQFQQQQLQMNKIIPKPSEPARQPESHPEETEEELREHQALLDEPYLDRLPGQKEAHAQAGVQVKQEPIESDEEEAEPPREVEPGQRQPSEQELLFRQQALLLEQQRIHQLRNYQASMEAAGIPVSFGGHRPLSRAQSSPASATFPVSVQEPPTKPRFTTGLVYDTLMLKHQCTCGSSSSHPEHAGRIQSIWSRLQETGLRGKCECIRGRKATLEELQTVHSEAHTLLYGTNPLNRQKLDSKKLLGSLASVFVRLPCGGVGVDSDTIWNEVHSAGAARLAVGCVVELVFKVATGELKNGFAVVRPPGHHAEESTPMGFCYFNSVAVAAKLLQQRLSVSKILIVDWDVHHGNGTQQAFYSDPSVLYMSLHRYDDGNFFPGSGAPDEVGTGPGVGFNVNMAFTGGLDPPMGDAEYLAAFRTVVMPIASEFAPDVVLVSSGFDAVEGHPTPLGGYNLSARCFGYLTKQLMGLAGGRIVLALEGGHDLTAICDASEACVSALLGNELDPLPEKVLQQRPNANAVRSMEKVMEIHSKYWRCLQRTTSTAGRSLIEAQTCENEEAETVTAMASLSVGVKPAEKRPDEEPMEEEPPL

Broadly, the pIC50 is the negative decadic logarithm of the IC50, by convention in mol/L. As for `Cc1nc(N(C)c2ccc(Oc3ccc(C(=O)NO)cn3)cc2)c2ccccc2n1` [F7, N-hydroxy-6-(4-(methyl(2-methylquinazolin-4-yl)amino)phenoxy)nicotinamide], the pIC50 was less than 5.00 against HDAC4, less than 5.00 at HDAC5 and 8.24 on HDAC6. Besides, the “HDAC6 inhibition efficacy of F7 compared with 23BB” value at HDAC6 is given as “three times higher”. At HDAC6, the “selectivity of HDAC6 versus other HDACs” value is given as 110-1724 times. In addition, the “organ damage (histological sections of liver, kidney, spleen, heart and lung)” value in data set [1] is given as “did not exhibited organ damage”. For the same compound, the “growth of HK-2 cells under stimulation of myoglobin” value in the data set on HK-2 cells was “improved growth of HK-2 cells under stimulation of myoglobin (Mb) in a dose-dependent manner”.
